One series relates to BALB/c mice. The series can be described thus: Measurement of Fluc activity in tissues after iv Fluc mRNA-loaded lipid nanoparticles. In kind it is in vivo, mouse. The note with it: for Fluc activity (gene transfer ability) in liver and spleen: Example 1, FIG. 1, Fluc mRNA-loaded LNP 50/10/40/1.5, Balb/c mice iv 0.01 mg mRNA/kg, 6 hours. The protocol: First, lipid nanoparticles encapsulating Fluc mRNA (Fluc mRNA-loaded lipid nanoparticles) were intravenously injected into BALB/c mice (female, 4 weeks old) at a dose of 0.01 mg mRNA/kg body weight. Six hours after intravenous injection, the mice were euthanized, and each tissue was collected, frozen in liquid nitrogen, and stored at −80° C. The tissues were homogenized in passive lysis buffer (Promega) using a bead cell disrupter (Micro Smash MS-100R, TOMY Seiko). Tissue debris was removed by centrifugation and the supernatant was collected. Fluc activity in the supernatant was measured using a luciferase assay system (E1500, Promega) according to the manufacturer's protocol. Luminescence was measured using a luminometer (Luminescencer-PSN, ATTO). The protein concentration was determined using a commercially available measurement kit (BCA Protein Assay Kit, Pierce). Fluc activity was expressed as relative light units (RLU) per mg of protein.

A short description of series [1]: Average particle diameter, PdI and zeta potential of lipid nanoparticles (dynamic light scattering). Format: physicochemical. The protocol:
The mean particle diameter (number average value), ζ-mean particle diameter, and polydispersity index (PdI) of the lipid nanoparticles in PBS(−) (pH 7.4), as well as the zeta potential in 10 mM HEPES buffer (pH 7.4), were measured using an analyzing device, Zetasizer Nano ZS ZEN3600 (Malvern), which utilizes dynamic light scattering.

Series [2] is described as follows: Encapsulation rate of lipid nanoparticles (Ribogreen). In kind it is physicochemical. The protocol:
The encapsulation rate of the lipid nanoparticles was calculated by measuring the amount of encapsulated nucleic acid (the amount of ssODN in the case of RNP-ssODN) using an RNA intercalator Ribogreen (manufactured by Life Technologies).

The subject of the next series is TTR gene. Briefly: Measurement of TTR-KO activity (serum TTR protein, ELISA). In kind it is in vivo, mouse. Conditions: for serum TTR activity / gene knockout versus CL4F6: FIG. 5, TTR-RNP-ssODN-loaded LNP, mouse serum 7 days after administration. The protocol:
Lipid nanoparticles encapsulating Cas9/sgTTR-RNP (Cas9/sgTTR-RNP-loaded lipid nanoparticles) were intravenously injected to BALB/c mice (female, 4 weeks old) at the indicated doses. One week after intravenous injection, the mice were euthanized, blood was collected, and serum was isolated by centrifugation. The TTR protein concentration in the serum was determined using a commercially available ELISA kit (Prealbumin ELISA Kit (mouse), Aviva Systems Biology) according to the manufacturer's protocol. The serum TTR protein concentration of untreated mice was taken as 100%, and the relative value (%) of the serum TTR protein concentration of mice administered with each lipid nanoparticle was taken as the knockout activity (TTR-KO activity) of the lipid nanoparticle.
For orientation: In an ELISA, binding on a coated surface is turned into a signal by an enzyme label.

The next series deals with factor 7 (F7). Conditions: knockdown of factor 7 (F7) in mouse liver; cited from earlier work.
Series [3] in a line: Evaluation of biodistribution (fluorescently labeled RNP-ssODN). In kind it is in vivo, mouse. The note with it: mice iv 2 mg RNP/kg, 1 hour; labeled TTR-RNP-ssODN in CL4H6 LNP (ssODN(−): free RNP, no LNP). The protocol:
For fluorescent labeling of lipid nanoparticles, the RNP-ssODN solution described above was mixed with a three-fold molar amount of a fluorescent molecule (DyLight 650 NHS ester) in DMSO and incubated for 30 min at ambient temperature in the dark. Unreacted fluorescent molecules were removed by ultrafiltration (Amicon Ultra-0.5, MWCO 3 kDa, Millipore).
Lipid nanoparticles encapsulating the obtained fluorescently labeled RNP-ssODN (fluorescently labeled RNP-ssODN-loaded lipid nanoparticles) were intravenously injected into BALB/c mice (female, 4 weeks old) at 2 mg RNP/kg body weight. One hour after intravenous injection, the mice were euthanized and various tissues, including blood, were collected. The collected blood was immediately diluted with 1% sodium dodecyl sulfate (SDS) solution. The collected tissues were immediately weighed and then homogenized in 1% sodium dodecyl sulfate (SDS) solution. The resulting homogenates were transferred to a black 96-well plate, and fluorescence was measured using a microplate reader (VarioskanLux, Thermo Fisher Scientific) at settings of λex=652 nm and λem=672 nm. Calibration curves were generated using fluorescently labeled RNP-ssODN-loaded lipid nanoparticles and blood or tissue homogenates similarly prepared from untreated mice. Biodistribution was expressed as the percentage of injected dose per tissue or blood (% injected dose).

In a further series the test system is dsDNA from the TTR locus. Briefly: In vitro DNA cleavage activity. In kind it is biochemical, mouse. Conditions: n=3. An excerpt: Genomic DNA was collected and purified from BALB/c mouse liver tissue using a commercially available nucleic acid extraction kit (NucleoSpin Tissue, MACHEREY-NAGEL) according to the manufacturer's protocol.
The dsDNA from the TTR locus was amplified by PCR (using KAPA HiFi HotStart DNA polymerase (KAPA Biosystems)) using the genomic DNA as a template and the primer set shown in Table 4, and purified using a commercially available nucleic acid purification kit (ISOSPIN PCR Product, Nippon Gene).
The ssODN (5 equivalents relative to […]) was added to Cas9/sgTTR-RNP to form a TTR-RNP-ssODN complex. […] The reaction solution was then heated at 65° C. for 5 minutes to inactivate Cas9-RNP, and the dsDNA was then subjected to electrophoresis on a 3% agarose gel at 100 V for 40 minutes. After electrophoresis, the gel was stained (GelRed, Biotium) and visualized using a fluorescent/visible light gel imaging system (Printgraph CMOS I, ATTO). Bands were quantified using image analysis software (ImageJ).
DNA cleavage was calculated using the following formula: in the formula, Int_full and Int_cleaved indicate the intensities derived from full length (uncleaved) and cleaved DNA, respectively.

Setting [4] is: Fluc mRNA-loaded LNP, cationic lipid/DSPC/cholesterol/PEG-DMG 50/10/40/1.5 mol%, Table 5.
The mark [5] stands for this setting: TTR-RNP-ssODN-loaded LNP (ssODN-TTR_3-40%), cationic lipid/DSPC/cholesterol/PEG-DMG 50/10/40/3.5 mol%, Table 8.
The mark [6] stands for this setting: Fluc mRNA-loaded LNP, CL4F11-e-3/neutral lipid (DSPC or DOPE)/cholesterol/PEG-DMG 50/10/40/0.75 mol%.
Setting [7] is: TTR-RNP-ssODN-loaded LNP, sgTTR-G211, CL4H6/DSPC/cholesterol/PEG-DMG 50/10/40/3.5 mol%, Table 11.
Setting [8] is: TTR-KO activity in mice, TTR-RNP-ssODN-loaded LNP CL4H6/DSPC/cholesterol/PEG-DMG 50/10/40/3.5 mol%, sgTTR-G211 (TTR_3) or sgTTR-G269 (TTR_4).

Turning to “7-(4-(dipropylamino)butyl)-7-hydroxytridecane-1,13-diylbis(3-heptyldecanoate) [CL4F10-b-7]”, the “Fluc activity (gene transfer ability) in liver and spleen” value in the series with BALB/c mice is reported as “equal to or greater than that of CL4F6”. Moreover, in series [1] (setting [4]), the Number-average particle diameter is on record as 35.3 nm, the PdI was 0.196, the ζ-average is on record as 65.3 nm and the ζ-potential is −3.30 mV. In series [1] (setting [5]), the Number-average particle diameter was found to be 82.5 nm, the PdI turned out to be 0.104, the ζ-average was found to be 127.1 nm and the ζ-potential was −0.48 mV. In addition, the Encapsulation rate in series [2] (setting [4]) worked out at 94.6%. In series [2] (setting [5]), this molecule yielded an Encapsulation rate of 86.0%. The “serum TTR activity / gene knockout versus CL4F6” value with TTR gene was “lower serum TTR activity and higher gene knockout”.
On to “7-(4-(dipropylamino)butyl)-7-hydroxytridecane-1,13-diylbis(3-hexylnonanoate) [CL4F9-b-6]”, for which the “Fluc activity (gene transfer ability) in liver and spleen” value in the series with BALB/c mice was “equal to or greater than that of CL4F6”. Moreover, in series [1] (setting [4]), the Number-average particle diameter is 45.1 nm, the PdI was determined as 0.267, the ζ-average turned out to be 81.5 nm and the ζ-potential is given as −4.32 mV. In series [1] (setting [5]), the Number-average particle diameter turned out to be 99.6 nm, the PdI is 0.145, the ζ-average came out at 141.5 nm and the ζ-potential is recorded as −0.10 mV. The Encapsulation rate in series [2] (setting [4]) came to 91.4%. Further, in series [2] (setting [5]), the Encapsulation rate was determined as 84.9%. Further, the “serum TTR activity / gene knockout versus CL4F6” value in the series with TTR gene was “lower serum TTR activity and higher gene knockout”.
Take `CCCCCCCC/C=C\CCCCCCCC(=O)OC[C@H](COP(=O)(O)OCCN)OC(=O)CCCCCCC/C=C\CCCCCCCC` [DOPE, 1,2-dioleoyl-sn-glycero-3-phosphoethanolamine]: the “Fluc activity in liver and spleen” value in the series with BALB/c mice (Example 2, FIG. 3, CL4F11-e-3 LNP with DSPC or DOPE, Balb/c mice) is “stable activity over a wide range of DOPE contents”. In series [1] (setting [6]), the Number-average particle diameter is recorded as 55.7 nm, the PdI came to 0.196, the ζ-average is 82.1 nm and the ζ-potential is listed as −2.35 mV. Also, the Encapsulation rate in series [2] (setting [6]) amounted to 89.1%.
As for `CCCCCC/C=C\COC(=O)CCCCCCCC(CCCCCCCC(=O)OC/C=C\CCCCCC)OC(=O)CCCN(C)C` [L319], the “ED50 in F7 knockdown” value in the series with factor 7 (F7) is reported as 0.01 mg siRNA/kg.
In the case of `CCCCC/C=C\C/C=C\CCCCCCCCOC1(OCCCCCCCC/C=C\C/C=C\CCCCC)CCN(C)CC1` [YSK05], in the series on factor 7 (F7), the “ED50 in F7 knockdown” value is 0.06 mg siRNA/kg.

B1: ssODN-TTR_3-80%: ssODN pairing with sgTTR-G211, 80% matched; SEQ ID NO 4 (nucleic acid)
DNA: AAAAAAAAAAAAAAAAAAAAAAAAAAAAAAAAAAAAAAAAAAAAAAAAAAAAAAAAAACTGTAGACGTGGCTGTTTAAAAAAAAAAAAAAAAAAAAAAAAAAAAAAAAAAAAAAAAAAAAAAAAAAAAAAAA
In series [3], B1 had an ID %/tissue blood of 11.71 ID %/tissue, an ID %/tissue kidney of 0.16 ID %/tissue, an ID %/tissue liver of 43.14 ID %/tissue and an ID %/tissue lung of 0.33 ID %/tissue. In series [3], this molecule had an ID %/tissue spleen of 3.21 ID %/tissue. In series [1] (setting [7]), this molecule had a Number-average particle diameter of 96.8 nm, a PdI of 0.112, a ζ-average of 141.3 nm and a ζ-potential of 2.88 mV. Moreover, in series [2] (setting [7]), the Encapsulation rate amounted to 69.4%. Moreover, the “in vitro DNA cleavage activity” value in the series with dsDNA from the TTR locus (FIG. 7, TTR-RNP-ssODN, sgTTR-G211, 37° C. 30 min) was “extremely low DNA cleavage activity”. Besides, the “relative DNA cleavage activity at 37° C.” value in the series on dsDNA from the TTR locus (FIG. 22(A), sgTTR-G211 RNP, activity without ssODN = 100%) is recorded as “about 20%”. Further, in the series with TTR gene (setting [8]), the “KO (%) 1st test” value turned out to be 0.3% and the “KO (%) 2nd test” value is 5.6%.
